From ChEMBL document CHEMBL1201862, “PubChem BioAssay data set” (2004) come the findings set out here.

Structures are written as SMILES. Activity calls are given as the source filed them.

A short description of data set [1]: HIV-1 AD8 envelope cell-cell fusion blockers – cherry-pick, dose response (AID 652062).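 Note: luciferase signal from cell-cell fusion driven by HIV-1 clade B AD8 Env; potency is for inhibitors of fusion seen as a drop in luminescence.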 In kind it is functional, cell-based.
A short description of data set [2]: off-target signal loss in HeLa-CEM21 co-culture – HeLa F-luc CTL cells, cherry-picked, counter-screen for HIV-1 Env fusion inhibitor project, dose response (AID 652040).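 Note: potency for signal decrease marking cytotoxic or nonspecific inhibition.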 It is filed as functional, cell-based.
Data set [3] is described as follows: blockers of HIV-1 envelope-mediated cell-cell fusion – cherry-pick, dose response (AID 652057). In kind it is functional, cell-based.
Data set [4] can be described thus: blockers of HIV-1 ZM109 envelope-driven cell-cell fusion – HeLa effector, CEM target cells, luciferase, cherry-pick, dose response (AID 652058).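 Note: luciferase signal from HIV-1 Env mediated cell-cell fusion of effector and target cells.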 In kind it is functional, cell-based.
The nature of a further data set: cells. It is filed as functional, cell-based.
Data set [5] deals with T1, Nuclear receptor subfamily 0 group B member 1 (Homo sapiens, UniProt P51843).
T1 sequence (P51843 whole entry): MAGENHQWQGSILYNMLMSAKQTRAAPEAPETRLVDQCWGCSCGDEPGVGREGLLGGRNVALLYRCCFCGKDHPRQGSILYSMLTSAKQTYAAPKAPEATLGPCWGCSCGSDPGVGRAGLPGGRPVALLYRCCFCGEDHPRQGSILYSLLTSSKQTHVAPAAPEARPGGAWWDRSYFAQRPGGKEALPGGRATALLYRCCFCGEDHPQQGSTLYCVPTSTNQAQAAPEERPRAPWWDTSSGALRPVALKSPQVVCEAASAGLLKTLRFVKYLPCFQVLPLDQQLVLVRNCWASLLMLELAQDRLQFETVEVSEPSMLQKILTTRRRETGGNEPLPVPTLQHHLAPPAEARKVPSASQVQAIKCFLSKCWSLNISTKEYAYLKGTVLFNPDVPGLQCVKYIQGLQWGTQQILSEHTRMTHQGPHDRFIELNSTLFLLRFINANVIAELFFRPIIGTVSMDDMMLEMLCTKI
It is filed as functional, cell-based.

Another data set concerns the target Cytochrome P450 2C9 (Homo sapiens, UniProt P11712).
For another data set, the target named is T2, Cytochrome P450 1A2 (Homo sapiens, UniProt P05177).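 Note: PubChem cytochrome P450 panel assay, CYP1A2 panel member.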
T2 sequence (P05177 whole entry): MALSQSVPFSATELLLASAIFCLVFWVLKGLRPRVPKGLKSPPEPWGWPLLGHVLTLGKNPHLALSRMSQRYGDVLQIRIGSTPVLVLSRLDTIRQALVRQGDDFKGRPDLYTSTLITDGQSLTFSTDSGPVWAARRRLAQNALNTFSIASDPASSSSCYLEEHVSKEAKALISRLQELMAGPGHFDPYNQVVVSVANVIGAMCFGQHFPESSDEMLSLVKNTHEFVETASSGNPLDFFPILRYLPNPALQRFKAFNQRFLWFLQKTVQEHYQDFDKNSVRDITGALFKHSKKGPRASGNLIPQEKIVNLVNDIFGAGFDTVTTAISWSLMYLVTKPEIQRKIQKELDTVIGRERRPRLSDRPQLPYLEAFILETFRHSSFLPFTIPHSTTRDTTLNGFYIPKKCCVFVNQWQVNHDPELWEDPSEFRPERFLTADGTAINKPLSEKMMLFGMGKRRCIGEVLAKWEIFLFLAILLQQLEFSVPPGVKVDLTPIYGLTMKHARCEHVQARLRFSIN

Another data set deals with Cytochrome P450 2D6 (Homo sapiens, UniProt P10635).
The target in data set [6] is T3, Short transient receptor potential channel 4 (Mus musculus, UniProt Q9QUQ5).
T3 sequence (Q9QUQ5 whole entry): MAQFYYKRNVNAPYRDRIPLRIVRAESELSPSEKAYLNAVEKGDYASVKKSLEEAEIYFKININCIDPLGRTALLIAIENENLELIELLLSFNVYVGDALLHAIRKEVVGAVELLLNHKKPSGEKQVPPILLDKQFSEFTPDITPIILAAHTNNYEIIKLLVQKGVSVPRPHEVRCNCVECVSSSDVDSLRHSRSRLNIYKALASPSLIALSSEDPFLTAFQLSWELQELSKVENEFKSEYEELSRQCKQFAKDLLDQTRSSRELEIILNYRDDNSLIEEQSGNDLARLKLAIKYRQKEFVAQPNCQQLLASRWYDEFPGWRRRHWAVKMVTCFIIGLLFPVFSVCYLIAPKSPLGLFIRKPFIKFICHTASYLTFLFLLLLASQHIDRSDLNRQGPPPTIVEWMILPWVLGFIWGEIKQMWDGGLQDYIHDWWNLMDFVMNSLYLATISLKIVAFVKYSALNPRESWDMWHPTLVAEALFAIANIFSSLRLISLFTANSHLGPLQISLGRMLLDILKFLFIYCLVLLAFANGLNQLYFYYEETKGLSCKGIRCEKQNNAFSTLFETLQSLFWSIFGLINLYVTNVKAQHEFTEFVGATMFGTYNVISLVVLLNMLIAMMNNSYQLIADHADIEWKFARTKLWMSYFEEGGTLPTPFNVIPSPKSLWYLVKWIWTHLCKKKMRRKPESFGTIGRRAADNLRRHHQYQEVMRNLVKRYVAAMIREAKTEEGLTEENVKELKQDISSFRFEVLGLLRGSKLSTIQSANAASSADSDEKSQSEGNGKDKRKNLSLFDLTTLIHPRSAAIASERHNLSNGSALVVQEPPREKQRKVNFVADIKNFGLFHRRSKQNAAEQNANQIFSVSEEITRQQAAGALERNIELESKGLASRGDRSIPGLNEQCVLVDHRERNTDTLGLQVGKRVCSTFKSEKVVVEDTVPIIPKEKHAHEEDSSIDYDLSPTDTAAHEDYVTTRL
Kind of data set: calcium entry via TRPC4 opening agents – cell-based, HEK293 TRPC4/mu-opioid, Fluo-4 calcium, dose response (AID 434937). In kind it is functional.

A further data set deals with Cytochrome P450 2C19 (Homo sapiens, UniProt P33261). Kind of data set: Cytochrome panel assay with activity outcomes. Panel member name: p450-cyp2c19 Compounds with AC50 equal or less than 10 uM are considered active. It is filed as functional. To be noted: read-out: AC50.
For data set [7], the target named is T4, Corticotropin-releasing factor receptor 2/Corticotropin-releasing factor-binding protein (Homo sapiens, UniProt P24387+Q13324).
T4 sequence (Q13324 whole entry): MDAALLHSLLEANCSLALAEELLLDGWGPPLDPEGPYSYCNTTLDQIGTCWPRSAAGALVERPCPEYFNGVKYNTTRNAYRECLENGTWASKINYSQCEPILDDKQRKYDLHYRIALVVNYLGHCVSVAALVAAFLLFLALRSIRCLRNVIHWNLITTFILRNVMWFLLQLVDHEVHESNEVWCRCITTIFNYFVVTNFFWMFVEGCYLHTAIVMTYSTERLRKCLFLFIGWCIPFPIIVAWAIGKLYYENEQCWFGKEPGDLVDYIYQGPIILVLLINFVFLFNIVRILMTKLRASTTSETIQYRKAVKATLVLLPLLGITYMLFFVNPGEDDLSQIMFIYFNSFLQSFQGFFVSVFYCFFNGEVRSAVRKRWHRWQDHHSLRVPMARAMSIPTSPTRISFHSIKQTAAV
T4 sequence (P24387 whole entry): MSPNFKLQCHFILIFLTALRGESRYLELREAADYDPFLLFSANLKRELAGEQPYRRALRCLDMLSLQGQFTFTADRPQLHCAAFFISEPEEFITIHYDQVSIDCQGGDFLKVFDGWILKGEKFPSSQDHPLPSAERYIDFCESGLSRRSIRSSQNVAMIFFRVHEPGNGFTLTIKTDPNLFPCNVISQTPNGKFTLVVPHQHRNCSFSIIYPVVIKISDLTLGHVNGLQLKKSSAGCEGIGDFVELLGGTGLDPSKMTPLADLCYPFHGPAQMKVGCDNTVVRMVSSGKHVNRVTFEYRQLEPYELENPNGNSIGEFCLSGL
Kind of data set: activators of CRF receptor 2 with binding protein – uHTS hits, confirmation (AID 602473). It is filed as functional. To be noted: read-out: EC50_Mean.

Data set [8] in a line: blockade of melanocortin 4 receptor signaling – cell-based, plate reader, cherry pick, counter-screen for LGR2 antagonist project, dose response (AID 743444).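 Note: transfected HEK 293 cells stimulated with alpha-MSH peptide; potency of inhibitors of the alpha-MSH evoked signal.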 In kind it is functional. Background: The purpose of a counterscreen is to sort out artefacts and off-target activity.
Data set [9] can be described thus: toxicity toward HepG2 liver cells – cell-based, plate reader, cherry-pick, antagonist series, cytotoxicity control, dose response (AID 743416). It is filed as functional.
Data set [10] is described as follows: blockers of bursicon-stimulated LGR2 cAMP reporter – cell-based, HEK293, CRE-luciferase reporter, cherry pick, set 2, dose response (AID 743343).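 Note: transfected cells were stimulated with diluted bursicon conditioned medium after compound addition.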 In kind it is functional. For orientation: A reporter such as luciferase makes a cellular process visible.
The test system of a further data set is HEK293. Kind of data set: EBV LMP1 TES2 canonical NF-kB signalling blockers – cell-based, HEK293, luciferase, cherry-pick, dose response (AID 588343). To be noted: Homo sapiens. In kind it is functional.
Data set [11] can be described thus: A549 cell cytotoxicity, dose response, cytotoxicity control, plate reader, cherry-pick, antagonist series (AID 743412). In kind it is functional, cell-based.
The target of another data set is Cytochrome P450 3A4 (Homo sapiens, UniProt P08684).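 Note: CYP3A4 tested as one member of a cytochrome P450 panel screen.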
The nature of data set [12]: intracellular Trypanosoma cruzi inhibitors in host cells – cell-based, plate reader, cherry-pick samples, set 3, dose response (AID 651818).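 Note: compounds incubated with infected cells for about four days.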 In kind it is functional.

Sequence of Cytochrome P450 2C9 (P11712 whole entry): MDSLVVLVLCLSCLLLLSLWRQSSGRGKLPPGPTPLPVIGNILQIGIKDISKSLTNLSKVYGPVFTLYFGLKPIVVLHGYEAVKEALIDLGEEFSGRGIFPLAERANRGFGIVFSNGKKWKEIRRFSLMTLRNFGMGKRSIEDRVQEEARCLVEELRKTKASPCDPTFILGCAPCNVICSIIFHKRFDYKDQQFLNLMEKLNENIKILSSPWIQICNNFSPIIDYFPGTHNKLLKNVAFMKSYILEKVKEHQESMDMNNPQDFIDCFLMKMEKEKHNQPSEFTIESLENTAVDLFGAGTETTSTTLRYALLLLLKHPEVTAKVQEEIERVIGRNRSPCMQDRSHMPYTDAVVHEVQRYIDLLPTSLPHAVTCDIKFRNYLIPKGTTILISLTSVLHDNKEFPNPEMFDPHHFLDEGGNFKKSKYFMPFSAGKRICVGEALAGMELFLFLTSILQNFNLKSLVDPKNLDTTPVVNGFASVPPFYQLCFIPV
Sequence of Cytochrome P450 2C19 (P33261 whole entry): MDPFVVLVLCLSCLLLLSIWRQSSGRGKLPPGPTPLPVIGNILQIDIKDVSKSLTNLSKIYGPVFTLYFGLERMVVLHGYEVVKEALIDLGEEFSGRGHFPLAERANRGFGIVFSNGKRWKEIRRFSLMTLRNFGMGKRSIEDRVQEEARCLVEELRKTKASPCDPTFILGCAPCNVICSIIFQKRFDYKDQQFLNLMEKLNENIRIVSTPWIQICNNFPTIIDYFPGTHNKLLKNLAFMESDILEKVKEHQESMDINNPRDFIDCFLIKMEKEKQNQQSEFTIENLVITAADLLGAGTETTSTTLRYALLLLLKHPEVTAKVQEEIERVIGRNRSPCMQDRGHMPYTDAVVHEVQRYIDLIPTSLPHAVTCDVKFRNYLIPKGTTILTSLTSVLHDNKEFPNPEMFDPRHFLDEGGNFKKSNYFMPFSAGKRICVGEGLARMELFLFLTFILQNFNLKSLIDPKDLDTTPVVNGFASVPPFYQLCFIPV
Sequence of Cytochrome P450 2D6 (P10635 whole entry): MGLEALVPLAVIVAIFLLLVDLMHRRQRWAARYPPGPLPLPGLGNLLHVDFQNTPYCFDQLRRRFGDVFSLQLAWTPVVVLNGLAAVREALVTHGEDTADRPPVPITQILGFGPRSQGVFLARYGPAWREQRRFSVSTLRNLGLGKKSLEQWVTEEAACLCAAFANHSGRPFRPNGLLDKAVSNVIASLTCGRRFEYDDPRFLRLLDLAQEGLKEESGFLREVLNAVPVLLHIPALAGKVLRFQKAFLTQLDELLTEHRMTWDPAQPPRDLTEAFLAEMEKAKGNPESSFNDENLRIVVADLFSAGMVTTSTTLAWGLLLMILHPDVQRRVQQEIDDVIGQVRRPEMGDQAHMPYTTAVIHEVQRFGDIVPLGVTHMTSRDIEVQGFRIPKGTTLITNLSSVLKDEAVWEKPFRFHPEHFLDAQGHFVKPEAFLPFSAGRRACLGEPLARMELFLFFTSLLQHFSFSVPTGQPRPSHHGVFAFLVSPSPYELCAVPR
Sequence of Cytochrome P450 3A4 (P08684 whole entry): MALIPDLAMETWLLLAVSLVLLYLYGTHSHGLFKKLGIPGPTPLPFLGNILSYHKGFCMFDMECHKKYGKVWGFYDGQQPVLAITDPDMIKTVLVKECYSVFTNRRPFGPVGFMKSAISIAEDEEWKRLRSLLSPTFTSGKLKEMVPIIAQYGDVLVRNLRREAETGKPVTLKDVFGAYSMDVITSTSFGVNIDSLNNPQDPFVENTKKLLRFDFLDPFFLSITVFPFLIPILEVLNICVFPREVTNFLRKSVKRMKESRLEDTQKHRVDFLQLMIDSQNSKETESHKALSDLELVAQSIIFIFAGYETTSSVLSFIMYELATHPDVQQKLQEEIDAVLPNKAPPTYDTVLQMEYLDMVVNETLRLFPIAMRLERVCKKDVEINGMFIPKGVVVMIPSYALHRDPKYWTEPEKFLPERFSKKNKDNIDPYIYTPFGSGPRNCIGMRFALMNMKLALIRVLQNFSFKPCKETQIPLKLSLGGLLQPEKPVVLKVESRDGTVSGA

In the case of `CCOC(=O)c1c(CSc2cccs2)n(C)c2cc(Br)c(O)c(CN(C)C)c12`, the AC50 (usually the concentration at which the activity in the assay is half-maximal) is 14.4 µM (active) in data set [1], 2.08 µM (active) in data set [2], 1.62 µM (active) in data set [3] and 1.23 µM (active) in data set [4].
For the molecule `CCOc1cccc(/C=C/c2ccc3ccccc3n2)c1OC(C)=O`, the IC50 (in the data set “cells”; in data set [5]) was > 67.5 µM (inactive) each time.
Consider `CC(C)NC(=O)COC(=O)c1cc(O)nc2ccccc12`, for which the AC50 result is “inconclusive” on Cytochrome P450 2C9 and 7.08 µM (inconclusive) on Cytochrome P450 1A2.
`COc1ccc(C(=O)CN2CCN(c3ccc(F)cc3)CC2)cc1OC`: the results for the AC50 on Cytochrome P450 2D6 and on Cytochrome P450 2C9 were 25.1 µM (inconclusive) and “inconclusive”, respectively.
Consider `O=C(NCc1ccccc1)C1=C[C@@H](C2CCCCC2)C[C@@H](OCc2ccc(CO)cc2)O1`, for which the EC50 in [6] is 2.37 µM (active).
Take `CCc1cc(C(=O)NN=C(S)NCC2CCCO2)cs1` (configuration not stated): the figures for the AC50 at Cytochrome P450 2C19, at Cytochrome P450 2C9 and on Cytochrome P450 1A2 were 7.94 µM (inconclusive), “inconclusive” and 17.8 µM (inconclusive), respectively.
As to `CCCc1c(O)nc(SCCN(CCC)CCC)nc1O`, the EC50 in data set [6] was 2.66 µM (active).
The same measure, in the same setting: under `CCN1CCN(c2ccc(S(=O)(=O)N3CCCCC3)cc2NC(=O)CC(C)c2ccccc2)CC1` (configuration not stated) stands 1.06 µM (active).
Regarding `CS(=O)(=O)N1CCC2(CC1)CN(c1cccc(-c3ccccc3)c1)C2`, the AC50 result on Cytochrome P450 2C9 is “inconclusive”.
On to `COc1ccc(CNCc2cn(-c3cccc(F)c3)nc2-c2ccc(C)o2)cc1`, for which the EC50 in data set [6] is 5.96 µM (active).
Consider `COC(=O)c1ccc(C(S)=NCC2(N(C)C)CCCCC2)cc1`, for which the EC50 in data set [6] was 5.31 µM (active).
For the molecule `Cc1ccc(-c2nc3c(=O)n(C)c4ccccc4c3o2)cc1`, the AC50 on Cytochrome P450 2C19 is 8.91 µM (inconclusive); at Cytochrome P450 2C9, “inconclusive”.
Consider `CCOc1ccccc1N(CC(=O)N1CCOCC1)S(=O)(=O)c1ccc(SC)cc1`, for which the values for the EC50 in data set [6] and in data set [7] were 2.66 µM (active) and 2.77 µM (active), respectively.
As for `COc1ccc2oc(C(=O)NCCc3ccccc3)c(C)c2c1`, the AC50 in [8] was 8.65 µM (active); in data set [9], 12.7 µM (active); in [10], 5.62 µM (active); with HEK293, 2.48 µM (active); in data set [11], 8.39 µM (active). Besides, the IC50 (in “cells”; in data set [5]) was > 67.5 µM (inactive) in each case.
`NC(=O)C1CCN(C(=O)c2cc3c(s2)CCCC3)CC1`: the IC50 (in “cells”; in data set [5]) was > 67.6 µM (inactive) throughout.
As to `Cc1cccc(NC(=O)CCSc2nc(C)cc(C)n2)c1`, the results for the AC50 on Cytochrome P450 2D6, at Cytochrome P450 2C9 and on Cytochrome P450 3A4 were 22.4 µM (inconclusive), “inconclusive” and 12.6 µM (inconclusive), respectively.
For `C[C@@H]1CN([C@@H](C)CO)C(=O)c2cccc(NC(=O)c3nc4ccccc4s3)c2O[C@@H]1CN(C)CC1CCCCC1`, the AC50 in data set [12] was 7.6 µM (active).
The same measure, in the same setting: as for `C[C@@H]1CN([C@H](C)CO)C(=O)c2cccc(NC(=O)NC3CCCCC3)c2O[C@H]1CN(C)CC1CCCCC1`, the figure is 2.5 µM (active); as for `C[C@H](CO)N1C[C@H](C)[C@@H](CN(C)Cc2ccc(Oc3ccccc3)cc2)Oc2c(NC(=O)c3ccc(-c4nccs4)cc3)cccc2C1=O`, 3.08 µM (active); as for `C[C@H]1CN([C@@H](C)CO)C(=O)Cc2cc(NC(=O)Nc3ccc(F)cc3)ccc2O[C@@H]1CN(C)Cc1ccc(C(F)(F)F)cc1`, 4.21 µM (active).
As for `C[C@@H]1CN([C@H](C)CO)C(=O)c2cccc(NS(=O)(=O)c3ccccc3)c2O[C@@H]1CN(C)Cc1ccc(C(=O)Nc2ccccc2N)cc1`, in data set [12], the AC50 was 3.53 µM (active).
The same measure, in the same setting: under `C[C@@H]1CCCCO[C@H](CN(C)C(=O)Nc2ccc(F)cc2)[C@@H](C)CN([C@H](C)CO)C(=O)c2cc(NC(=O)Nc3ccc(F)cc3)ccc2O1` stands 5.89 µM (active).
In the case of `C[C@@H]1CN([C@@H](C)CO)S(=O)(=O)c2ccc(-c3cccc(F)c3)cc2O[C@@H]1CN(C)S(=O)(=O)c1ccccc1`, the AC50 in data set [1] is 6.62 µM (active); in [3], 0.597 µM (active); in [4] it was 0.965 µM (active).
Regarding `C(=N\Nc1ccc2ccccc2n1)/c1ccc2c(c1)OCO2`, the IC50 (in general, the concentration that inhibits the measured activity by half) in the data set “cells” is > 67.6 µM (inactive); in data set [5], > 0.278 µM (active). Also, in the data set on HEK293, the AC50 is 2.42 µM (active).
